Data on nine compounds can be found in ChEMBL document CHEMBL5518212, “Structure-Based Design of Novel G-Protein-Coupled Receptor TAAR1 Agonists as Potential Antipsychotic Drug Candidates” (J Med Chem, 2024).

Series [1] can be described thus: Cmax in Sprague-Dawley rat at 2 mg/kg, iv measured upto 8 hrs by LC-MS/MS analysis. The series is classed as ADME, organism-based. Conditions: in vivo.
Series [2] in a line: Cmax in Sprague-Dawley rat at 10 mg/kg, po measured upto 8 hrs by LC-MS/MS analysis. The series is classed as ADME, organism-based. As to conditions: in vivo.
Series [3] in a line: Solubility of the compound at pH 2. Conditions: buffer. In kind it is physicochemical.
A short description of series [4]: Acute toxicity in Kunming mouse assessed as change in body weight at 500 mg/kg, po measured after 7 days. In kind it is organism-based. Conditions: in vivo, 168 h, time 7 day.
Series [5] can be described thus: Clearance in Sprague-Dawley rat at 2 mg/kg, iv measured upto 8 hrs by LC-MS/MS analysis. Conditions: in vivo. The series is classed as ADME, organism-based.
The nature of series [6]: AUC(0 to t) in Sprague-Dawley rat at 2 mg/kg, iv measured upto 8 hrs by LC-MS/MS analysis. In kind it is ADME, organism-based. As to conditions: in vivo.
Series [7] can be described thus: Tmax in Sprague-Dawley rat at 2 mg/kg, iv measured upto 8 hrs by LC-MS/MS analysis. In kind it is ADME, organism-based. Conditions: in vivo.
A short description of series [8]: Toxicity in Kunming mouse assessed as spleen damage at 50 mg/kg, po administered every 2 days for 14 days by H and E staining based assay. The series is classed as organism-based. Conditions: in vivo, 336 h, time 14 day.
The nature of series [9]: AUC(0 to t) in Sprague-Dawley rat at 10 mg/kg, po measured upto 8 hrs by LC-MS/MS analysis. The series is classed as ADME, organism-based. As to conditions: in vivo.
Series [10] can be described thus: Toxicity in Kunming mouse assessed as heart damage at 50 mg/kg, po administered every 2 days for 14 days by H and E staining based assay. The series is classed as organism-based. Conditions: in vivo, 336 h, time 14 day.
Series [11] in a line: Toxicity in Kunming mouse assessed as liver damage at 50 mg/kg, po administered every 2 days for 14 days by H and E staining based assay. In kind it is organism-based. As to conditions: in vivo, 336 h, time 14 day.
The nature of series [12]: Acute toxicity in Kunming mouse assessed as abnormal behavior at 50 mg/kg, po administered every 2 days for 14 days. In kind it is organism-based. Conditions: in vivo, 336 h, time 14 day.
Series [13] is described as follows: Toxicity in Kunming mouse assessed as kidney damage at 50 mg/kg, po administered every 2 days for 14 days by H and E staining based assay. The series is classed as organism-based. Conditions: in vivo, 336 h, time 14 day.
Series [14] is described as follows: Half-life in Sprague-Dawley rat at 10 mg/kg, po measured upto 8 hrs by LC-MS/MS analysis. The series is classed as ADME, organism-based. Conditions: in vivo.
Series [15] is described as follows: Oral bioavailability in Sprague-Dawley rat at 10 mg/kg measured upto 8 hrs by LC-MS/MS analysis. In kind it is ADME, organism-based. Conditions: in vivo.
Series [16] in a line: Acute toxicity in Kunming mouse assessed as change in body weight at 50 mg/kg, po administered every 2 days for 14 days. In kind it is organism-based. As to conditions: in vivo, 336 h, time 14 day.
Series [17] is described as follows: Toxicity in Kunming mouse assessed as lung damage at 50 mg/kg, po administered every 2 days for 14 days by H and E staining based assay. As to conditions: in vivo, 336 h, time 14 day. In kind it is organism-based.
Series [18] in a line: AUC(0 to infinity) in Sprague-Dawley rat at 10 mg/kg, po measured upto 8 hrs by LC-MS/MS analysis. The series is classed as ADME, organism-based. As to conditions: in vivo.
Series [19] can be described thus: Half-life in Sprague-Dawley rat at 2 mg/kg, iv measured upto 8 hrs by LC-MS/MS analysis. In kind it is ADME, organism-based. As to conditions: in vivo.
A short description of series [20]: Solubility of the compound at pH 7. The series is classed as physicochemical. As to conditions: buffer.
The nature of series [21]: Solubility of the compound at pH 7.4. As to conditions: buffer. In kind it is physicochemical.
Series [22] is described as follows: Tmax in Sprague-Dawley rat at 10 mg/kg, po measured upto 8 hrs by LC-MS/MS analysis. In kind it is ADME, organism-based. As to conditions: in vivo.
A short description of series [23]: AUC(0 to infinity) in Sprague-Dawley rat at 2 mg/kg, iv measured upto 8 hrs by LC-MS/MS analysis. In kind it is ADME, organism-based. Conditions: in vivo.
Series [24] has as its target T1, Trace amine-associated receptor 1 (Homo sapiens, UniProt Q96RJ0).
T1 sequence (Q96RJ0 whole entry): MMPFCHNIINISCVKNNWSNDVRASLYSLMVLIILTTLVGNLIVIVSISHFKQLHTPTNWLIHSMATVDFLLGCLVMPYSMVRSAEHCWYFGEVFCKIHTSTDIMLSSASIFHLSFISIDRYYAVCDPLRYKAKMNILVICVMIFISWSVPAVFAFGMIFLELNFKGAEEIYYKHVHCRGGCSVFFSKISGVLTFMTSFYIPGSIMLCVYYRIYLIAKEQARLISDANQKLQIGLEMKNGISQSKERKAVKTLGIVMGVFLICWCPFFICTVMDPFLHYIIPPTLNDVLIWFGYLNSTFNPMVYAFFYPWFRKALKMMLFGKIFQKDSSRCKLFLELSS
The series is described as follows: Agonist activity at Gq-mediated TAAR1 activation (unknown origin) expressed in HEK293 cells pretreated with coelenterazine for 30 mins followed by compound addition by BRET assay. The series is classed as functional, cell-based. (BRET reads energy transfer from a luciferase to a nearby fluorophore.)

In series [25] the target is T1, Trace amine-associated receptor 1. The series is described as follows: Agonist activity at Gs-mediated TAAR1 activation (unknown origin) expressed in HEK293 cells pretreated with coelenterazine for 30 mins followed by compound addition by BRET assay. The series is classed as functional, cell-based.
A short description of series [26]: Toxicity in C57BL/6J mouse assessed as induction of catalepsy at 3 to 10 mg/kg, po measured at 30 to 60 mins. The series is classed as organism-based. As to conditions: in vivo, dose lower 3 mg/kg, time lower 30 min, dose upper 10 mg/kg, time upper 60 min.
Series [27] is filed under the species Mus musculus. Conditions: C57BL/6J, dose 0.3-3 mg/kg, route po, time 70.0 min.
The nature of series [28]: Toxicity in C57BL/6J mouse assessed as reduction in baseline locomotion at 3 mg/kg, po. The series is classed as organism-based. As to conditions: in vivo.

SMILES strings stand for the structures. ≈ marks a conversion by molar mass, not a printed value.

Take `C[C@@H](N)C(=O)Nc1ccc(-c2ccco2)cc1.Cl`: the Cmax is 292 ng/mL in [1] and 154 ng/mL in series [2]. Besides, the results for the solubility in series [3], in series [20] and in series [21] were 8640 µg/mL, 7500 µg/mL and 3110 µg/mL, respectively. For the same compound, the Activity result in [4], in series [8], in series [10], in series [11], in [12] and in series [13] was “Non-Toxic” in each case. Moreover, the Activity result in [16] and in series [17] was “Non-Toxic” throughout. Besides, the clearance in series [5] stood at 104 mL/min/kg. For the same compound, the AUC(0-t) at 8 h stood at 323 ng·h/mL in series [6] and 627 ng·h/mL in series [9]. The results for the Tmax in series [7] and in series [22] were 1.8 min and 1.5 h, respectively. Moreover, the half-life in [14] is 2.31 h; in [19], 1.23 h. Further, in [15], the bioavailability was determined as 39%. For the same compound, the AUC(0-inf) in [18] was found to be 634 ng·h/mL; in series [23] it was 327 ng·h/mL.
Consider `Nc1ccc(-c2ccccc2)cc1` [BIPHENYL-4-AMINE], for which the EC50 in series [24] came out at 342 nM.
With `NCCc1ccc(Br)cc1`, the half-maximal effective concentration (EC50) in [25] came out at 9.85 nM; in series [24], 66.5 nM.
Regarding `CN(C)Cc1ccc(-c2cccc(Cl)c2)cc1`, in [26], the Activity entry is given as “Non-Toxic”.
Turning to `CN(C)Cc1ccc(-c2ccccc2)cc1`, in [26], the Activity result is reported as “Non-Toxic”. Besides, the EC50 in series [25] is 9.46 nM. For the same compound, the inhibition result in series [27] was “Dose-Dependent Effect”.
Take `C[C@@H](N)C(=O)Nc1ccc(-c2ccco2)cc1`: the Activity result in [26] and in [28] was “Non-Toxic” each time. In addition, the results for the solubility in series [3], in series [20] and in series [21] were 390 µg/mL (≈ 1690 µM), 710 µg/mL (≈ 3080 µM) and 540 µg/mL (≈ 2350 µM), respectively.
On to `NCc1ccc(-c2ccccc2)cc1`, for which the EC50 in series [25] turned out to be 301 nM.
On to `NCCc1ccc(-c2cccc(F)c2)cc1`, for which the EC50 in [25] was determined as 1.17 nM.
For `Nc1ccc(-c2cccc(F)c2)cc1`, the EC50 in [24] was found to be 28.9 nM.

As a reminder, the Cmax is the highest concentration seen after dosing. As usually defined, the solubility is the dissolved amount per volume that the medium holds. As a reminder, the clearance is the rate of elimination divided by the concentration. A lower clearance goes with inefficient removal. As a reminder, the AUC(0-t) is the area under the concentration-time curve up to a stated or last time point. Read a high AUC(0-t) as more exposure. By Tmax is commonly meant the time from dosing to the highest level. Usually half-life stands for how long it takes for the measured level to halve. Read a low half-life as rapid decline. The term bioavailability denotes dose-corrected exposure relative to a reference, in per cent. A low value points to poor availability. Usually AUC(0-inf) stands for total exposure, with the tail of the curve extrapolated. A word on the EC50: it is the concentration that produces a half-maximal response.
